Reference: patent US20250115571A1, “OXOPIPERAZINE DERIVATIVES” (Inthera Bioscience AG, priority 2017, published 2025)

Legend:
PC3 = test: 9-day colony survival assay (CFA); assay type: cell-based; settings: Homo sapiens, PC-3, 216 h, PC3 (prostate), read-out: GI50 (50% growth inhibition)
CaSki = test: 9-day colony survival assay (CFA); assay type: cell-based; settings: Homo sapiens, Ca-Ski, 216 h, CaSki (cervix), read-out: GI50 (50% growth inhibition)
Excerpt: Cell culture. CaSki cells (cervical cancer) were obtained from CLS GmbH, Eppelheim, Germany (cat #300145) and subcultured in ready-to-use RPMI1640 Media (CLS #820700) after addition of “Antibiotic Antimycotic Solution” (Sigma-Aldrich, St Louis, USA) at 1:100 dilution. The cells were expanded, and aliquots kept frozen in liquid nitrogen according to manufacturer's instructions; tested for mycoplasma contamination and genotyped (Microsynth AG, Balgach, Switzerland). Once thawed, aliquots were passaged every second or third day at a seed density of 20′000 cells/cm^2; and used for a maximum of twenty passages. For passaging, cell culture flasks were rinsed twice with Ca++/Mg++-free Phosphate-Buffered Saline (DPBS, CLS #860015) and incubated with Accutase (CLS #830100) for 15 min at 37° C. Cells were resuspended in a four-fold volume of ready-to-use RPMI, centrifuged at 300 g for ten minutes, the supernatant discarded and the cells resuspended in ready-to-use RPMI1640 by pipetting up and down five times with a serological pipette. Cell density was determined with a Via-1 Cassette (Chemometec, Allerod, Denmark) on a Nucleocounter NC 3000 (Chemometec). Where not stated, consumables and chemicals were purchased from well-known suppliers.
Preparation of the cells for CFA. Cell culture flasks were rinsed twice with DPBS and incubated with Accutase for 15 min at 37° C. Cells were resuspended in a four-fold volume of ready-to use RPMI, centrifuged at 300 g for ten minutes, the supernatant discarded and the cells resuspended in ready-to-use RPMI1640 by pipetting up and down ten times with a serological pipette. Cell density was determined with a Via-1 Cassette on a Nucleocounter NC 3000. The required amount of cells was first diluted 1:10 in ready-to-use RPMI; cells pipetted five times up-down with a serological pipette; and the 1:10 solution added to the final volume needed for the whole assay setup. Cells were mixed again by pipetting up and down twenty times with a serological pipette. The cell density used for the experiment was of 140 cells/ml.
Seeding. Cells were seeded row-wise in 12-well plates, while triplicates were treated column-wise (i.e. all the first rows were seeded first, then the second rows, and finally the third rows). One and a half ml cell suspension solution (a total of 210 cells) were added per well.
Treatment. Compound stock solutions were prepared at a concentration of 30 mM in 50% DMSO/50% water; and diluted in the same solution so that the volume added to the wells was of 2.5 μl and the final DMSO well concentration of 0.08%. Untreated cells (negative controls) were incubated in a) medium only; and b) 0.08% DMSO. […] The plates were swirled gently after addition of the compounds and the cells incubated for nine days at 37° C. Culture incubation solutions were replaced after five days.
Staining. Colonies were washed twice with ice-cold DPBS and fixed on ice with 1 ml ice-cold 10% methanol solution for 30 min. The methanol solution was removed and colonies incubated with 0.1% Crystal Violet/DBPS for 20 min at room temperature. The wells were rinsed consecutively with 1.5, 1, and 0.5 ml water at room temperature and let dry.
Destaining and data evaluation. […] Absorbance was measured at 600 nm with a SpectraMax M2e reader (Molecular Devices, Sunnyvale, CA, USA). Percentage of colony formation was calculated from the average of the well triplicates compared to the untreated DMSO controls after subtraction of blank values. […]

[1] = tested on: hormone-refractory DU-145 human prostate cancer cells; test: Cell-derived xenograft mouse model for prostate cancer (DU-145 CDX); assay type: in vivo; settings: p.o. QD × 4 weeks; for T/C (tumor-to-control ratio, volume/volume): day 35
Description: Male BALB/c nude mice (7-9 weeks of age) were injected with hormone-refractory DU-145 human prostate cancer cells. The cells were inoculated subcutaneously into the left flank of 48 mice. When tumors reached a mean volume of approximately 105 mm^3, mice were randomly assigned to eight treatment groups of each six mice (TABLE 12). Body weights were measured three times weekly prior to the initiation of dosing and daily thereafter. Tumor burden was assessed by caliper measurement three times weekly. Dosing breaks were applied when tolerability issues arose (body weight loss>10%). The study was terminated 4 weeks post first dosing. The experiment was performed in the Crown Bioscience Ltd. (Beijing) testing facility (Ground Floor, Light Muller Building, Changping Sector of Zhongguancun Scientific Park, No. 21 Huoju Road, Changping District, Beijing, CHIN).

[2] = tested on: MKN45 human gastric adenocarcinoma cells; test: Cell-derived xenograft mouse model for gastric cancer (MKN45 CDX); assay type: in vivo; settings: p.o.; for Tumor Size day 29: MKN45 CDX, female BALB/c nude mice, Mean ± SEM; for T/C: day 29, tumor-to-control ratio (volume/volume)
Description: Female BALB/c nude mice (8-9 weeks of age) were injected with MKN45 human gastric adenocarcinoma cells. The cells were inoculated subcutaneously into the left flank of 48 mice. When tumors reached a mean volume of approximately 103 mm^3, mice were randomly assigned to eight treatment groups of each six mice (TABLE 16). Body weights were measured three times weekly prior to the initiation of dosing and daily thereafter. Tumor burden was assessed by caliper measurement twice weekly. Dosing breaks were applied when tolerability issues arose (body weight loss>10%). The study was terminated four weeks post first dosing. The experiment was performed in the Crown Bioscience Ltd. (Beijing) testing facility (Ground Floor, Light Muller Building, Changping Sector of Zhongguancun Scientific Park, No. 21 Huoju Road, Changping District, Beijing, CHN).

SMILES	GI50 (PC3) [nM]	GI50 (CaSki) [nM]	Tumor Size day 35 (Mean ± SEM) ([1]; 1 mg/kg) [mm^3]	T/C (tumor-to-control ratio, volume/volume) ([1]; 1 mg/kg) [%]	Tumor Size day 35 (Mean ± SEM) ([1]; 3 mg/kg) [mm^3]	T/C (tumor-to-control ratio, volume/volume) ([1]; 3 mg/kg) [%]	Tumor Size day 35 (Mean ± SEM) ([1]; 6 mg/kg) [mm^3]	T/C (tumor-to-control ratio, volume/volume) ([1]; 6 mg/kg) [%]	Tumor Size day 35 (Mean ± SEM) ([1]; 10 mg/kg) [mm^3]	T/C (tumor-to-control ratio, volume/volume) ([1]; 10 mg/kg) [%]	Tumor Size day 29 ([2]; 3 mg/kg, QD) [mm^3]	T/C ([2]; 3 mg/kg, QD) [%]	Tumor Size day 29 ([2]; 6 mg/kg, QD) [mm^3]	T/C ([2]; 6 mg/kg, QD) [%]	Tumor Size day 29 ([2]; 20 mg/kg, BIW) [mm^3]	T/C ([2]; 20 mg/kg, BIW) [%]
CC(C)C[C@@H]1NCCN([C@@H](CC(C)C)C(=O)N2CCC3(C[C@@H]2C)OCC(CN2CCCC2)CO3)C1=O (stereo partly drawn) [Compound 258, (3S)-1-[(2S)-4-methyl-1-oxo-1-[(3s,6s,8S)-8-methyl-3-(pyrrolidin-1-ylmethyl)-1,5-dioxa-9-azaspiro[5.5]undec-an-9-yl]pentan-2-yl]-3-(2-methylpropyl)piper-azin-2-one (^≠), isomer Z]	3	2	378 ± 27	54.5	105 ± 25	15.2	32 ± 2	4.6	47 ± 4	6.8	428.0 ± 52.5	36.0	186.9 ± 17.3	15.7	763.4 ± 84.5	64.2
CC(C)C[C@@H]1NCCN([C@@H](CC(C)C)C(=O)N2CCC3(C[C@@H]2C)OCC(CN2CCC4(CC2)CC4)CO3)C1=O (stereo partly drawn) [Compound 279, (3S)-1-[(2S)-4-methyl-1-oxo-1-[(3s,6s,8S)-3-{6-azaspiro[2.5]octan-6-ylmethyl}-8-methyl-1,5-dioxa-9-azaspiro[5.5]undec-an-9-yl]pentan-2-yl]-3-(2-methylpropyl)piper-azin-2-one (^≠), isomer Z]	1.5	4			516 ± 59	74.5										
CC(C)C[C@@H]1NCCN([C@@H](CC(C)C)C(=O)N2CCC3(C[C@@H]2C)OCC(CN2CCC2)CO3)C1=O (stereo partly drawn) [Compound 284, (3S)-1-[(2S)-4-methyl-1-oxo-1-[(3s,6s,8S)-3-(azetidin-1-ylmethyl)-8-methyl-1,5-dioxa-9-azaspiro[5.5]undec-an-9-yl]pentan-2-yl]-3-(2-methylpropyl)piper-azin-2-one (^≠), isomer Z]	3	6			347 ± 48	50.1					709.0 ± 55.6	59.6	592.6 ± 109.7	49.8		
